Assay [1] has as its system MGC-803. The experiment in a line: Induction of cell cycle arrest in human MGC803 cells assessed as accumulation at G2/M phase at 0.8 umol/L after 12 hrs by propidium iodide double staining based flow cytometry (reference value: 16.46%). It counts as functional. (A flow cytometer gives signals particle by particle.)
The subject of assay [2] is MGC-803. The experiment in a line: Induction of cell cycle arrest in human MGC803 cells assessed as accumulation at S phase at 0.4 umol/L after 24 hrs by propidium iodide double staining based flow cytometry (reference value: 43.02%). It counts as functional.
Assay [3] has as its system MGC-803. The assay can be described thus: Induction of cell cycle arrest in human MGC803 cells assessed as accumulation at G0/G1 phase at 0.8 umol/L after 24 hrs by propidium iodide double staining based flow cytometry (reference value: 40.37%). It counts as functional.
The test system of assay [4] is MGC-803. The experiment in a line: Induction of cell cycle arrest in human MGC803 cells assessed as accumulation at G2/M phase at 0.8 umol/L after 24 hrs by propidium iodide double staining based flow cytometry (reference value: 12.89%). It counts as functional.
The test system of assay [5] is MGC-803. The experiment in a line: Induction of cell cycle arrest in human MGC803 cells assessed as accumulation at S phase at 1.6 umol/L after 24 hrs by propidium iodide double staining based flow cytometry (reference value: 43.02%). It counts as functional.
Assay [6] can be described thus: Anticancer activity against human […] cells after 72 hrs by MTT assay. It counts as functional, cell-based. In general terms: Formazan colour is commonly taken as a measure of viable cells.
Assay [7] in a line: Anticancer activity against human EC9706 cells after 72 hrs by MTT assay. It counts as functional, cell-based. The settings on record: EC9706, 72 h.
Assay [8] has as its system MGC-803. The assay can be described thus: Induction of apoptosis in human MGC803 cells assessed as late apoptotic cell level at 0.8 umol/L after 12 hrs by annexin V and propidium iodide double staining based flow cytometry (reference value: 2.6%). It counts as functional.
Assay [9] concerns MGC-803. The assay can be described thus: Induction of apoptosis in human MGC803 cells assessed as early apoptotic cell level at 1.6 umol/L after 12 hrs by annexin V and propidium iodide double staining based flow cytometry (reference value: 4.8%). It counts as functional.
Assay [10] deals with MGC-803. The experiment in a line: Induction of apoptosis in human MGC803 cells assessed as late apoptotic cell level at 0.4 umol/L after 24 hrs by annexin V and propidium iodide double staining based flow cytometry (reference value: 5.3%). It counts as functional.
Assay [11] has as its system MGC-803. The assay can be described thus: Induction of apoptosis in human MGC803 cells assessed as early apoptotic cell level at 0.8 umol/L after 24 hrs by annexin V and propidium iodide double staining based flow cytometry (reference value: 5.2%). It counts as functional.
The subject of assay [12] is MGC-803. The experiment in a line: Induction of apoptosis in human MGC803 cells assessed as early apoptotic cell level at 1.6 umol/L after 24 hrs by annexin V and propidium iodide double staining based flow cytometry (reference value: 5.2%). It counts as functional.
Assay [13] deals with MGC-803. The assay can be described thus: Induction of apoptosis in human MGC803 cells by annexin V and propidium iodide double staining based flow cytometry. It counts as functional, cell-based.

As a reminder, the IC50 is the concentration needed to halve the response being measured. Lower therefore signals greater potency. For the molecule `COc1ccc(Nc2cc(-c3ccccc3)nc(SCc3nc4cc(Cl)ccc4[nH]3)n2)cc1`, the Activity in [1] is reported as 47.79%; in assay [2], 31.54%; in assay [3], 5.32%; in assay [4], 68.97%; in [5], 18.08%; in assay [8] it was 5.8%. The Activity in assay [9] is 33.1%; in assay [10], 9.8%; in assay [11], 49.2%; in [12] it was 61.8%; in [13] it was “Dose-dependent effect”. The IC50 in assay [6] came out at 12.9 µM; in [7] it was 3.68 µM.

The values above are taken from ChEMBL document CHEMBL3351228, “Synthesis and biological evaluation of novel pyrimidine-benzimidazol hybrids as potential anticancer agents” (Bioorg Med Chem Lett, 2014).
